The assay addresses T1, MCH receptor (Homo sapiens, UniProt Q99705).
T1 construct: expressed in transfected cells; host or cells: CHO cells
The assay can be described thus: MCH Receptor Binding Assay ([125I]-MCH, SPA beads, membranes from CHO cells expressing the MCH receptor). As to the method: MCH Receptor Binding Assay:
Membranes from CHO cells expressing the MCH receptor were prepared by lysing cells with 5 mM HEPES for 15 minutes at 4° C. Cell lysates were centrifuged ([…], 15 minutes) and the pellet was resuspended in 5 mM HEPES. For each 96-well plate (Microlite, Dynex Technologies), 1 mg of cell membranes were incubated with 10 mg of wheat germ agglutinin SPA beads (Amersham) for 5 minutes at 4° C. in a volume of 10 ml of binding buffer (25 mM HEPES, 10 mM MGCl2, 10 mM NaCl, 5 mM MnCl2, 0.1% BSA). The membrane/bead mixture was centrifuged (1500×g, 3.5 min), the supernatant was aspirated, and the pellet was resuspended in 10 ml binding buffer. The centrifugation, aspiration and resuspension were then repeated. The membrane/bead mixture (100 μl) was then added to 96-well plates containing 50 μl of 500 pM [^125I]-MCH (NEN) and […] of the appropriate concentration of compound (4X the desired final concentration). Nonspecific binding was determined by including 1 μM MCH in the binding reaction. The binding reaction was incubated at room temperature for 2 hours. Plates were then analyzed in a TOPCOUNT microplate scintillation counter (Packard). Data was analyzed and Ki values were determined using GraphPad Prism.

T1 sequence (Q99705 whole entry): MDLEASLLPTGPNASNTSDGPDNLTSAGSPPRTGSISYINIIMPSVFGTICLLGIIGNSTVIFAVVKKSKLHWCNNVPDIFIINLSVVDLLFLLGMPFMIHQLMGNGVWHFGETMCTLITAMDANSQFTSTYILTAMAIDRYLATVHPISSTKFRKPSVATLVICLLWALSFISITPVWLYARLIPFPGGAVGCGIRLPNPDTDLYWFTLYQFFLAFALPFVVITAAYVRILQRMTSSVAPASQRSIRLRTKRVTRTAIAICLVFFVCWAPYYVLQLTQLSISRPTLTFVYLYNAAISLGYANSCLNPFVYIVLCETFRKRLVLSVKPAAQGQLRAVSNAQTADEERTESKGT

As to `C[C@@H]1CN(CCCN(C(=O)Nc2ccc(F)c(Cl)c2)C2COc3ccc(Br)cc3C2)[C@@H](C)CN1` (some centres unmarked) [Compound XXI], under “Ki rating (class)”, the inhibition constant Ki was below 1 µM.
The same measure, in the same setting: the same measure for `C[C@@H]1CN(C(=O)OC(C)(C)C)[C@@H](C)CN1CCCN(C(=O)Nc1ccc(F)c(Cl)c1)C1COc2ccc(Br)cc2C1` (stereo partly drawn) [Compound XXV, (2S,5R)-4-{3-[1-(6-bromo-chroman-3-yl)-3-(3-chloro-4-fluoro-phenyl)-ureido]-propyl}-2,5-dimethyl-piperazine-1-carboxylic acid tert-butyl ester]: 1 to 2 µM.
The same measure, in the same setting: the same measure for `CN1CCN(CCCN(C(=O)Nc2ccc(F)c(Cl)c2)C2CCc3ccc(S(=O)(=O)N(C)C)cc3C2)CC1` (centres unmarked) [Compound XXX, 7-{3-(3-chloro-4-fluoro-phenyl)-1-[3-(4-methyl-piperazin-1-yl).-propyl]-ureido}-5,6,7,8-tetrahydro-naphthalene-2-sulfonic acid dimethylamide]: above 2 µM; for `CN1CCN(CCCN(C(=O)Nc2cc(Cl)nc(Cl)c2)C2CCc3ccc(S(=O)(=O)N(C)C)cc3C2)CC1` (centres unmarked) [Compound XXXII]: above 2 µM.
The same measure, in the same setting: the same measure for `CN1CCN(CCCN(C(=O)Nc2ccc(F)c(Cl)c2)C2CCc3ccccc3C2)CC1` (centres unmarked) [Compound XVII, 3-(3-chloro-4-fluoro-phenyl)-1-[3-(4-methyl-piperazin-1-yl)-propyl]-1-(1,2,3,4-tetrahydro-naphthalen-2-yl)-urea]: below 1 µM.
For the molecule `CC(C)C(=O)Nc1ccc2c(c1)CC(N(CCCN1CCN(C)CC1)C(=O)Nc1ccc(F)c(Cl)c1)CC2` (centres unmarked) [Compound IV, N-(7-{3-(3-chloro-4-fluoro-phenyl)-1-[3-(4-methyl-piperazin-1-yl)-propyl]-ureido}-5,6,7,8-tetrahydro-naphthalen-2-yl)-isobuty ramide], the Ki (Ki rating (class)) is below 1 µM and the Ki ([125I]-MCH) turned out to be 0.061 µM.
As for `C[C@@H]1CN(CCCN(C(=O)Nc2ccc(F)c(Cl)c2)C2COc3ccc(Br)cc3C2)[C@@H](C)CN1C(=O)OC(C)(C)C` (some centres unmarked) [Compound XXVI], the Ki (Ki rating (class)) lay in the range of 1 to 2 µM.
On to `CC(=O)Nc1ccc2c(c1)CC(N(CCCN1CCN(C)CC1)C(=O)Nc1ccc(F)c(Cl)c1)CC2` (centres unmarked) [Compound I, N-(7-{3-(3-chloro-4-fluoro-phenyl)-1-[3-(4methyl-piperazin-1-yl)-propyl]-ureido}-5,6,7,8-tetrahydro-naphthalen-2yl)-acetamide], for which the Ki runs as follows: (Ki rating (class)) below 1 µM; ([125I]-MCH) 0.006 µM.
`CN1CCN(CCCN(C(=O)Nc2ccc(F)c(Cl)c2)C2Cc3ccccc3C2)CC1` [Compound XIX, 3-(3-chloro-4-fluoro-phenyl)-1-indan-2-yl-1-[3-(4-methyl-piperazin-1-yl)-propyl]-urea]: the inhibition constant Ki (Ki rating (class)) was below 1 µM.
Still for that read-out and setting: the same measure for `COc1cc2c(cc1OC)CC(N(CCCN1CCN(C)CC1)C(=O)Nc1ccc(F)c(Cl)c1)CC2` (centres unmarked) [Compound XXVIII, 3-(3-chloro-4-fluoro-phenyl)-1-(6,7-dimethoxy-1,2,3,4-tetrahydro-naphthalen-2-yl)-1-[3-(4-methyl-piperazin-1-yl)-propyl]-urea]: above 2 µM.
Turning to `CN1CCN(CCCN(C(=O)Nc2ccc(F)c(Cl)c2)C2CCc3cc(Br)ccc3C2)CC1` (centres unmarked) [Compound X, 1-(6-bromo-1,2,3,4-tetrahydro-naphthalen-2-yl)-3-(3-chloro-4-fluoro-phenyl)-1-[3-(4-methyl-piperazin-1-yl)-propyl]-urea], the Ki was below 1 µM (Ki rating (class)) and 0.178 µM ([125I]-MCH).
Where the note is “Ki rating (class)”, `COc1cc2c(cc1OC)CC(N(CCCN1CCN(C)CC1)C(=O)Nc1cc(Cl)nc(Cl)c1)CC2` (centres unmarked) [Compound XX, 3-(2,6-dichloro-pyridin-4-yl)-1-(6,7-dimethoxy-1,2,3,4-tetrahydro-naphthalen-2-yl)-1-[3-(4-methyl-piperazin-1-yl)-propyl]-urea] showed a Ki below 1 µM.
On the same count and under the same terms, the same measure for `CNS(=O)(=O)c1ccc2c(c1)CC(N(CCCN1CCN(C)CC1)C(=O)Nc1cc(Cl)nc(Cl)c1)CC2` (centres unmarked) [Compound XXII, 7-{3-(2,6-dichloro-pyridin-4-yl)-1-[3-(4-methyl-piperazin-1-yl)-propyl]-ureido}-5,6,7,8-tetrahydro-naphthalene-2-sulfonic acid methylamide]: below 1 µM.
For `COc1ccc2c(c1)CC(N(CCCN1CCN(C)CC1)C(=O)Nc1ccc(F)c(Cl)c1)CC2` (centres unmarked) [Compound VII, 3-(3-chloro-4-fluoro-phenyl)-1-(7-methoxy-1,2,3,4-tetrahydro-naphthalen-2-yl)-1-[3-(4-methyl-piperazin-1-yl)-propyl]-urea], the Ki reads like this: (Ki rating (class)) below 1 µM; ([125I]-MCH) 0.092 µM.
The molecule `CN1CCN(CCCN(C(=O)Nc2ccc(F)c(Cl)c2)C2CCc3ccc(N)cc3C2)CC1` (centres unmarked) displayed a Ki (Ki rating (class)) below 1 µM.
Same read-out and setting: the same measure for `C[C@@H]1CN[C@@H](C)CN1CCCN(C(=O)Nc1ccc(F)c(Cl)c1)C1COc2ccc(Br)cc2C1` (stereo partly drawn) [Compound XVIII, (2R,5S)-1-(6-bromo-chroman-3-yl)-3-(3-chloro-4-fluoro-phenyl)-1-[3-(2,5-dimethyi-piperazin-1-yl)-propyl]-urea]: below 1 µM.
Turning to `CN1CCN(CCCN(C(=O)Nc2ccc(F)c(Cl)c2)C2CCc3ccc(C#N)cc3C2)CC1` (centres unmarked) [Compound III, 3-(3-chloro-4-fluoro-phenyl)-1-(7-cyano-1,2,3,4-tetrahydro-naphthalen-2-yl)-1-[3-(4-methyl-piperazin-1-yl)-propyl]-urea], the Ki (Ki rating (class)) was below 1 µM and the Ki ([125I]-MCH) worked out at 0.014 µM.
`CN1CCN(CCCN(C(=O)Nc2ccc(F)c(Cl)c2)C2CCc3ccc(S(C)(=O)=O)cc3C2)CC1` (centres unmarked) displayed a Ki (Ki rating (class)) of 1 to 2 µM.
On the same count and under the same terms, the same measure for `C[C@@H]1CN(C(=O)OC(C)(C)C)[C@@H](C)CN1CCCN(C(=O)Nc1cc(Cl)nc(Cl)c1)C1COc2ccc(Br)cc2C1` (some centres unmarked) [Compound XV]: below 1 µM; for `CN1CCN(CCCN(C(=O)Nc2ccc(F)c(C(F)(F)F)c2)C2CCc3ccc(S(=O)(=O)N(C)C)cc3C2)CC1` (centres unmarked) [Compound XXXI, 7-{3-(4-fluoro-3-trifluoromethyl-phenyl)-1-[3-(4-methyl-piperazin-1-yl)-propyl]-ureido}-5,6,7,8-tetrahydro-naphthalene-2-sulfonic acid dimethylamide]: above 2 µM.
The same measure, in the same setting: the same measure for `COc1ccc2c(c1)CCC(N(CCCN1CCN(C)CC1)C(=O)Nc1ccc(F)c(Cl)c1)C2` (centres unmarked) [Compound XII, 3-(3-chloro-4-fluoro-phenyl)-1-(6-methoxy-1,2,3,4-tetrahydro-naphthalen-2-yl)-1-[3-(4-methyl-piperazin-1-yl)-propyl]-urea]: below 1 µM; for `C[C@@H]1CN(CCCN(C(=O)Nc2cc(Cl)nc(Cl)c2)C2COc3ccc(Br)cc3C2)[C@@H](C)CN1` (some centres unmarked) [Compound XI]: below 1 µM.
Take `CN1CCN(CCCN(C(=O)Nc2ccc(F)c(Cl)c2)C2CCc3ccc(NS(C)(=O)=O)cc3C2)CC1` (centres unmarked) [Compound VIII, N-(7-{3-(3-chloro-4-fluoro-phenyl)-1-[3-(4-methyl-piperazin-1-yl)-propyl]-ureido}-5,6,7,8-tetrahydro-naphthalen-2-yl)-methanesulfonamide]: the Ki (Ki rating (class)) is below 1 µM and the inhibition constant (Ki) ([125I]-MCH) worked out at 0.096 µM.
On to `CN1CCN(CCCN(C(=O)Nc2cc(Cl)nc(Cl)c2)C2CCc3ccc(S(C)(=O)=O)cc3C2)CC1` (centres unmarked) [Compound XIII, 3-(2,6-dichloro-pyridin-4-yl)-1-(7-methanesulfonyl-1,2,3,4-tetrahydro-naphthalen-2-yl)-1-[3-(4-methyl-piperazin-1-yl)-propyl]-urea], for which the inhibitory constant (Ki) (Ki rating (class)) was below 1 µM.
As to `C[C@@H]1CN[C@@H](C)CN1CCCN(C(=O)Nc1cc(Cl)nc(Cl)c1)C1COc2ccc(Br)cc2C1` (some centres unmarked) [Compound V], the Ki by setting is: (Ki rating (class)) below 1 µM; ([125I]-MCH) 0.063 µM.

What is called Ki is a measure of affinity in units of concentration, obtained from inhibition or displacement. Higher therefore signals a looser hold on the target.

The values are drawn from patent US7550467B2 (Schering Corporation, priority 2004, dated 2009).
